Patent publication US8835428B2, “Diacylglycerol acyltransferase inhibitors” (Piramal Enterprises Limited, priority 2008, dated 2014)

target: T1, hDGAT1 (Homo sapiens, UniProt O75907); assay: In-vitro DGAT1 assay (hDGAT1 microsomes from Sf9 cells, 14C oleoyl CoA, triglyceride formation); type: biochemical; details: At 10 μM
T1 construct: host or cells: Sf9 insect cells (baculovirus); microsomal preparation
T1 sequence (O75907 1-488): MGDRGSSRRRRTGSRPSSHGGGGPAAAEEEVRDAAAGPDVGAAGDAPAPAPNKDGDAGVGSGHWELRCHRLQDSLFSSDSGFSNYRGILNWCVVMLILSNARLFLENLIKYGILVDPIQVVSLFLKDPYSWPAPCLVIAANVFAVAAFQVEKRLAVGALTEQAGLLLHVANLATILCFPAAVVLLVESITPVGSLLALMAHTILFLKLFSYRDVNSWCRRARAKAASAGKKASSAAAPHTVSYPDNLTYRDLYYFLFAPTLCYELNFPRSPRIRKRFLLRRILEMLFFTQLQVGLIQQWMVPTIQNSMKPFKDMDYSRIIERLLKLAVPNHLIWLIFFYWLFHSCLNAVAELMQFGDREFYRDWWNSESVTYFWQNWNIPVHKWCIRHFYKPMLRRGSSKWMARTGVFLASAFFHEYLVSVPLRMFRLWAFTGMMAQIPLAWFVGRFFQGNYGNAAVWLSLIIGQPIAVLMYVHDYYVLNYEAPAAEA
Protocol: In-vitro Protocol for DGAT1 Assay
Sf9 Culture and Treatment
Sf9 cells were grown in T25 flasks containing Graces's Insect media with 10% FBS with antibiotic (100 units/mL penicillin, 100 μg/mL streptomycin sulphate, 0.25 μg/mL Amptotericin B as Fungizone) grown in a 27° C. incubator:
hDGAT1ORF expression clone (RZPDo839C09146 in pDEST vector) was obtained from RZPD, Germany. hDGAT1 bacmid DNA was obtained by transformation of the hDGAT expression clone into DH10Bac E. coli competent cells. Approximately 1 μg of hDGAT1 bacmid DNA was infected into Sf9 cells with Cellfectin (Invitrogen) reagent. Following infection, Sf9 cells were incubated at 27° C. for 30 minutes. Five hours after infection, the media was replaced with growth media containing antibiotic (100 units/mL penicillin, 100 μg/mL streptomycin sulphate, 0.25 μg/mL Amptotericin B as Fungizone) and incubated at 27° C. for 72 hours. The supernatant containing the virus was centrifuged at 1500×g for 5 minutes, passed through 0.22 μm filter, and subsequently stored at 4° C. The virus was further amplified three more times by re-infection of Sf9 cells and the viral titer was determined by plaque assay.
Preparation of DGAT1 Microsomes from Sf9 Cells
Sf9 cells were seeded in spinner flasks on day 0 at a cell density of 1×10^6 and infected on day 1 with hDGAT1 baculovirus at a multiplicity of infection (MOI) of 5 and a cell density of 2×10^6. On day 3 (or 66-72 hours), cells were harvested and centrifuged at 2500×g for 10 minutes. Pellet was resuspended in lysis buffer (100 mM sucrose, 50 mM KCl, 40 mM KH2PO4, 30 mM EDTA, pH 7.2) and passed through 21-gauge needle approximately 10 times. The mixture was centrifuged at 12,000 rpm in a Sigma 12158-H rotor at 4° C. for 30 minutes. The supernatant was subjected to centrifugation at 35,000 rpm in a Beckman Ti-45 rotor at 4° C. for 1 hour. The resultant pellet containing the microsomes were resuspended overnight in 1 mL of lysis buffer and total protein concentration was estimated using Bradford Reagent. Microsomes were aliquoted and stored at −20° C.
Measurement of DGAT1 Activity
Frozen aliquots of hDGAT1 containing microsomes were thawed (5-10 mg/mL total protein) on ice and diluted to a working stock of 1 mg/mL with DGAT Assay Buffer (DAB). The DGAT reaction assay was performed by following the procedure described in U.S. Pat. No. 6,607,893 with some modifications that are described below.
Preparation of DGAT1 substrate mixture: 1 mL stock solution of DGAT1 substrate mixture contains (i) 5.6 μL of ^14C oleoyl CoA (16.8 nCi) and 35 μL 1,2-dioleoyl-sn-glycerol (409.5 μM) or (ii) 5.6 μL of ^14C oleoyl CoA (16.8 nCi) and 105 μL 1,2-dioleoyl-sn-glycerol (1228.5 μM) or (iii) 5.6 μL of ^14C oleoyl CoA (16.8 nCi) and 140 μL 1,2-dioleoyl-sn-glycerol (1638 μM).
1,2-sn-dioleoylglycerol substrate concentration in the 1 mL stock solution of DGAT1 substrate mixture was varied depending on the microsome concentration used in the assay reaction. 1,2-dioleoyl-sn-glycerol stock (19.5 mM) was prepared by dissolving 25 mg of 1,2-dioleoyl-sn-glycerol (Sigma, US) in 2060 μL of acetone. The assay was performed in duplicates in a reaction volume of 100 μL. The reaction volume consisted of: • (i) 27.5 μL of DGAT assay buffer (0.25M Sucrose, 1 mM EDTA (pH 8.0), 150 mM Tris-HCl, pH 7.4, 1.25 mg/mL, fatty acid free BSA), • (ii) 10 μL of compound, of present invention or standard (dissolved in DMSO and diluted to 10× with DAB and screened at 10 μM, 5 μM and 1 μM), • (iii) 60 μL DGAT1 substrate mixture taken from a 1 mL stock (16.8 nCi of ^14C oleoyl CoA and 409.5 μM or 1228.5 μM or 1638 μM of 1,2-dioleyl-sn-glycerol), • (iv) 2.5-10 μL of 1 mg/mL of microsomes (the amount of assay buffer was varied depending upon the concentration of microsome to make up the volume to 100 μL). Procedure:
The reaction was started by the addition of 2.5-10 μL of 1 mg/mL of microsomes (iv) to a mixture of (i), (ii) and (iii), vortexed and incubated at 37° C. for 10 minutes. […]

inhibition at 10 µM	SMILES
0 to 50%	COC(=O)[C@H](NC(=NO)c1cc(-c2ccc(Nc3nc4ccc(F)cc4s3)cc2)no1)C(C)C [Example 40, (R)-2-({3-[4-(6-Fluoro-benzothiazol-2-ylamino)-phenyl]-N-hydroxy-isoxazole-5-carboximidoyl}-amino)-3-methyl-butyric acid methyl ester]
0 to 50%	CC(C)[C@@H](NC(=NO)c1cc(-c2ccc(Nc3nc4ccc(F)cc4s3)cc2)no1)C(=O)O [Example 41, (R)-2-({3-[4-(6-Fluoro-benzothiazol-2-ylamino)-phenyl]-N-hydroxy-isoxazole-5-carboximidoyl}-amino)-3-methyl-butyric acid]
50 to 75%	CC(C)[C@@H](NC(=O)c1cc(-c2ccc(Nc3nc4ccc(F)cc4s3)cc2)no1)C(=O)O [Example 42, (R)-2-({3-[4-(6-Fluoro-benzothiazol-2-ylamino)-phenyl]-isoxazole-5-carbonyl}-amino)-3-methyl-butyric acid]
50 to 75%	CC(C)[C@@H](NC(=S)c1cc(-c2ccc(Nc3nc4ccc(F)cc4s3)cc2)no1)C(=O)O [Example 43, (R)-2-({3-[4-(6-Fluoro-benzothiazol-2-ylamino)-phenyl]-isoxazole-5-carbothioyl}-amino)-3-methyl-butyric acid]
75 to 100%	CC(C)[C@H](NC(=O)c1cc(-c2ccc(Nc3nc4ccc(F)cc4s3)cc2)no1)C(=O)O [Example 44, (S)-2-({3-[4-(6-Fluoro-benzothiazol-2-ylamino)-phenyl]-isoxazole-5-carbonyl}-amino)-3-methyl-butyric acid]
50 to 75%	CC(C)[C@H](NC(=S)c1cc(-c2ccc(Nc3nc4ccc(F)cc4s3)cc2)no1)C(=O)O [Example 45, (S)-2-({3-[4-(6-Fluoro-benzothiazol-2-ylamino)-phenyl]-isoxazole-5-carbothioyl}-amino)-3-methyl-butyric acid]
0 to 50%	COC(=O)[C@H](CC(C)C)NC(=O)c1cc(-c2ccc(Nc3nc4ccc(F)cc4s3)cc2)no1 [Example 46, (S)-2-({3-[4-(6-Fluoro-benzothiazol-2-ylamino)-phenyl]-isoxazole-5-carbonyl}-amino)-4-methyl-pentanoic acid methyl ester]
75 to 100%	CC(C)C[C@H](NC(=O)c1cc(-c2ccc(Nc3nc4ccc(F)cc4s3)cc2)no1)C(=O)O [Example 47, (S)-2-({3-[4-(6-fluoro-benzothiazol-2-ylamino)-phenyl]-isoxazole-5-carbonyl}-amino)-4-methyl-pentanoic acid]
0 to 50%	COC(=O)[C@H](CC(C)C)NC(=S)c1cc(-c2ccc(Nc3nc4ccc(F)cc4s3)cc2)no1 [Example 48, (S)-2-({3-[4-(6-Fluoro-benzothiazol-2-ylamino)-phenyl]-isoxazole-5-carbothioyl}-amino)-4-methyl-pentanoic acid methyl ester]
50 to 75%	CC(C)C[C@H](NC(=S)c1cc(-c2ccc(Nc3nc4ccc(F)cc4s3)cc2)no1)C(=O)O [Example 49, (S)-2-({3-[4-(6-Fluoro-benzothiazol-2-ylamino)-phenyl]-isoxazole-5-carbothioyl}-amino)-4-methyl-pentanoic acid]
0 to 50%	COC(=O)[C@H](CC(C)C)NC(=NO)c1cc(-c2ccc(Nc3nc4ccc(F)cc4s3)cc2)no1 [Example 50, (S)-2-({3-[4-(6-Fluoro-benzothiazol-2-ylamino)-phenyl]-N-hydroxy-isoxazole-5-carboximidoyl}-amino)-4-methyl-pentanoic acid methyl ester]
0 to 50%	CC(C)C[C@H](NC(=NO)c1cc(-c2ccc(Nc3nc4ccc(F)cc4s3)cc2)no1)C(=O)O [Example 51, (S)-2-({3-[4-(6-Fluoro-benzothiazol-2-ylamino)-phenyl]-N-hydroxy-isoxazole-5-carboximidoyl}-amino)-4-methyl-pentanoic acid]
0 to 50%	COC(=O)[C@@H](NC(=O)c1cc(-c2ccc(Nc3nc4ccc(F)cc4s3)cc2)no1)c1ccccc1 [Example 52, (S)-({3-[4-(6-Fluoro-benzothiazol-2-ylamino)-phenyl]-isoxazole-5-carbonyl}-amino)-phenyl-acetic acid methyl ester]
75 to 100%	O=C(N[C@H](C(=O)O)c1ccccc1)c1cc(-c2ccc(Nc3nc4ccc(F)cc4s3)cc2)no1 [Example 53, (S)-({3-[4-(6-Fluoro-benzothiazol-2-ylamino)-phenyl]-isoxazole-5-carbonyl}-amino)-phenyl-acetic acid]
0 to 50%	COC(=O)[C@@H](NC(=S)c1cc(-c2ccc(Nc3nc4ccc(F)cc4s3)cc2)no1)c1ccccc1 [Example 54, (S)-({3-[4-(6-Fluoro-benzothiazol-2-ylamino)-phenyl]-isoxazole-5-carbothioyl}-amino)-phenyl-acetic acid methyl ester]
0 to 50%	COC(=O)[C@@H](NC(=NO)c1cc(-c2ccc(Nc3nc4ccc(F)cc4s3)cc2)no1)c1ccccc1 [Example 56, (S)-({3-[4-(6-Fluoro-benzothiazol-2-ylamino)-phenyl]-N-hydroxy-isoxazole-5-carboximidoyl}-amino)-phenyl-acetic acid methyl ester]
0 to 50%	O=C(O)[C@@H](NC(=NO)c1cc(-c2ccc(Nc3nc4ccc(F)cc4s3)cc2)no1)c1ccccc1 [Example 57, (S)-({3-[4-(6-Fluoro-benzothiazol-2-ylamino)-phenyl]-N-hydroxy-isoxazole-5-carboximidoyl}-amino)-phenyl-acetic acid]
0 to 50%	O=C(O)CNC(=O)c1cc(-c2ccc(Nc3nc4ccc(F)cc4s3)cc2)no1 [Example 59, ({3-[4-(6-Fluoro-benzothiazol-2-ylamino)-phenyl]-isoxazole-5-carbonyl}-amino)-acetic acid]
0 to 50%	COC(=O)CNC(=S)c1cc(-c2ccc(Nc3nc4ccc(F)cc4s3)cc2)no1 [Example 60, ({3-[4-(6-fluoro-benzothiazol-2-ylamino)-phenyl]-isoxazole-5-carbothioyl}-amino)-acetic acid methyl ester]
0 to 50%	O=C(O)CNC(=S)c1cc(-c2ccc(Nc3nc4ccc(F)cc4s3)cc2)no1 [Example 61, ({3-[4-(6-fluoro-benzothiazol-2-ylamino)-phenyl]-isoxazole-5-carbothioyl}-amino)-acetic acid]
